Assay results reported in the NIST ThermoML archive (doi:10.1021/je800266e).
± gives the expanded uncertainty stated by the source.

Columns and labels:
[1] = for Triple point temperature: Adiabatic calorimetry; for Normal melting temperature: DTA
[2] = Molar enthalpy of transition or fusion
[3] = molar heat capacity at constant pressure; details: 101.33 kPa, Small (less than 1 g) adiabatic calorimetry

CCC(=O)[c-]1cccc1.[Fe+2].c1cc[cH-]c1 [propanoylferrocene]
Triple point temperature ([1]; Crystal): 276.83 ± 1 K
Normal melting temperature ([1]; Crystal): 5.1 ± 2 °C
Molar enthalpy of transition or fusion ([2]; Crystal, Adiabatic calorimetry): 3.04 ± 0.0813 kcal/mol
Molar enthalpy of transition or fusion ([2]; Crystal, DSC): 3.51 ± 0.239 kcal/mol
molar heat capacity at constant pressure ([3]; 10 K, Crystal): 4.607 ± 0.097 J/K/mol
molar heat capacity at constant pressure ([3]; 15 K, Crystal): 11.25 ± 0.18 J/K/mol
molar heat capacity at constant pressure ([3]; 20 K, Crystal): 18.61 ± 0.25 J/K/mol
molar heat capacity at constant pressure ([3]; 25 K, Crystal): 26.27 ± 0.28 J/K/mol
molar heat capacity at constant pressure ([3]; 30 K, Crystal): 34.16 ± 0.27 J/K/mol
molar heat capacity at constant pressure ([3]; 35 K, Crystal): 42.07 ± 0.31 J/K/mol
molar heat capacity at constant pressure ([3]; 40 K, Crystal): 49.63 ± 0.35 J/K/mol
molar heat capacity at constant pressure ([3]; 45 K, Crystal): 56.35 ± 0.38 J/K/mol
molar heat capacity at constant pressure ([3]; 50 K, Crystal): 61.76 ± 0.41 J/K/mol
molar heat capacity at constant pressure ([3]; 55 K, Crystal): 66.08 ± 0.43 J/K/mol
molar heat capacity at constant pressure ([3]; 60 K, Crystal): 70.11 ± 0.45 J/K/mol
molar heat capacity at constant pressure ([3]; 65 K, Crystal): 74.36 ± 0.47 J/K/mol
molar heat capacity at constant pressure ([3]; 70 K, Crystal): 79.11 ± 0.5 J/K/mol
molar heat capacity at constant pressure ([3]; 75 K, Crystal): 84.35 ± 0.52 J/K/mol
molar heat capacity at constant pressure ([3]; 80 K, Crystal): 89.8 ± 0.55 J/K/mol
molar heat capacity at constant pressure ([3]; 90 K, Crystal): 99.79 ± 0.6 J/K/mol
molar heat capacity at constant pressure ([3]; 100 K, Crystal): 108.7 ± 0.6 J/K/mol
molar heat capacity at constant pressure ([3]; 110 K, Crystal): 116.7 ± 0.7 J/K/mol
molar heat capacity at constant pressure ([3]; 120 K, Crystal): 124.2 ± 0.7 J/K/mol
molar heat capacity at constant pressure ([3]; 130 K, Crystal): 131.6 ± 0.7 J/K/mol
molar heat capacity at constant pressure ([3]; 140 K, Crystal): 138.9 ± 0.8 J/K/mol
molar heat capacity at constant pressure ([3]; 150 K, Crystal): 146.4 ± 0.8 J/K/mol
molar heat capacity at constant pressure ([3]; 160 K, Crystal): 154 ± 0.8 J/K/mol
molar heat capacity at constant pressure ([3]; 170 K, Crystal): 161.9 ± 0.8 J/K/mol
molar heat capacity at constant pressure ([3]; 180 K, Crystal): 170 ± 0.9 J/K/mol
molar heat capacity at constant pressure ([3]; 190 K, Crystal): 178.3 ± 0.9 J/K/mol
molar heat capacity at constant pressure ([3]; 200 K, Crystal): 186.8 ± 0.9 J/K/mol
molar heat capacity at constant pressure ([3]; 210 K, Crystal): 195.4 ± 1 J/K/mol
molar heat capacity at constant pressure ([3]; 220 K, Crystal): 204.1 ± 1 J/K/mol
molar heat capacity at constant pressure ([3]; 230 K, Crystal): 212.9 ± 1.1 J/K/mol
molar heat capacity at constant pressure ([3]; 240 K, Crystal): 221.9 ± 1.1 J/K/mol
molar heat capacity at constant pressure ([3]; 250 K, Crystal): 231 ± 1.1 J/K/mol
molar heat capacity at constant pressure ([3]; 260 K, Crystal): 240.3 ± 1.2 J/K/mol
molar heat capacity at constant pressure ([3]; 270 K, Crystal): 250.1 ± 1.2 J/K/mol
molar heat capacity at constant pressure ([3]; 280 K, Crystal): 260.5 ± 1.2 J/K/mol
molar heat capacity at constant pressure ([3]; 290 K, Crystal): 271.7 ± 1.3 J/K/mol
molar heat capacity at constant pressure ([3]; 298.15 K, Crystal): 280.7 ± 1.3 J/K/mol
molar heat capacity at constant pressure ([3]; 300 K, Crystal): 282.7 ± 1.3 J/K/mol
molar heat capacity at constant pressure ([3]; 310 K, Crystal): 293.8 ± 1.4 J/K/mol
molar heat capacity at constant pressure ([3]; 311.13 K, Crystal): 295 ± 1.4 J/K/mol
molar heat capacity at constant pressure ([3]; 311.13 K, Liquid): 347.6 ± 1.6 J/K/mol
molar heat capacity at constant pressure ([3]; 320 K, Liquid): 353.3 ± 1.6 J/K/mol
molar heat capacity at constant pressure ([3]; 330 K, Liquid): 359.7 ± 1.6 J/K/mol
molar heat capacity at constant pressure ([3]; 340 K, Liquid): 365.7 ± 1.7 J/K/mol
molar heat capacity at constant pressure ([3]; 350 K, Liquid): 372.9 ± 1.7 J/K/mol
molar heat capacity at constant pressure ([3]; 360 K, Liquid): 378.5 ± 1.7 J/K/mol
molar heat capacity at constant pressure ([3]; 370 K, Liquid): 381.9 ± 1.7 J/K/mol

CCC[c-]1cccc1.[Fe+2].c1cc[cH-]c1 [propylferrocene]
Triple point temperature ([1]; Crystal 1): 311.62 ± 1 K
Normal melting temperature ([1]; Crystal 1): 38.47 ± 2 °C
Triple point temperature ([1]; Crystal 2): 186.7 ± 0.6 K
Molar enthalpy of transition or fusion ([2]; Crystal 1, Adiabatic calorimetry): 4.58 ± 0.0574 kcal/mol
Molar enthalpy of transition or fusion ([2]; Crystal 1, DSC): 4.71 ± 0.239 kcal/mol
Molar enthalpy of transition or fusion ([2]; Crystal 2, Adiabatic calorimetry): 0.294 ± 0.00956 kcal/mol
molar heat capacity at constant pressure ([3]; 5 K, Crystal 2): 0.5339 ± 0.032 J/K/mol
molar heat capacity at constant pressure ([3]; 10 K, Crystal 2): 3.806 ± 0.084 J/K/mol
molar heat capacity at constant pressure ([3]; 15 K, Crystal 2): 11.48 ± 0.18 J/K/mol
molar heat capacity at constant pressure ([3]; 20 K, Crystal 2): 20.55 ± 0.27 J/K/mol
molar heat capacity at constant pressure ([3]; 25 K, Crystal 2): 29.5 ± 0.32 J/K/mol
molar heat capacity at constant pressure ([3]; 30 K, Crystal 2): 37.6 ± 0.29 J/K/mol
molar heat capacity at constant pressure ([3]; 35 K, Crystal 2): 44.82 ± 0.33 J/K/mol
molar heat capacity at constant pressure ([3]; 40 K, Crystal 2): 51.46 ± 0.36 J/K/mol
molar heat capacity at constant pressure ([3]; 45 K, Crystal 2): 57.41 ± 0.39 J/K/mol
molar heat capacity at constant pressure ([3]; 50 K, Crystal 2): 62.94 ± 0.42 J/K/mol
molar heat capacity at constant pressure ([3]; 55 K, Crystal 2): 68.11 ± 0.44 J/K/mol
molar heat capacity at constant pressure ([3]; 60 K, Crystal 2): 72.96 ± 0.47 J/K/mol
molar heat capacity at constant pressure ([3]; 65 K, Crystal 2): 77.55 ± 0.49 J/K/mol
molar heat capacity at constant pressure ([3]; 70 K, Crystal 2): 81.91 ± 0.51 J/K/mol
molar heat capacity at constant pressure ([3]; 75 K, Crystal 2): 86.11 ± 0.53 J/K/mol
molar heat capacity at constant pressure ([3]; 80 K, Crystal 2): 89.89 ± 0.55 J/K/mol
molar heat capacity at constant pressure ([3]; 90 K, Crystal 2): 98.25 ± 0.59 J/K/mol
molar heat capacity at constant pressure ([3]; 100 K, Crystal 2): 106.2 ± 0.6 J/K/mol
molar heat capacity at constant pressure ([3]; 110 K, Crystal 2): 114.1 ± 0.7 J/K/mol
molar heat capacity at constant pressure ([3]; 120 K, Crystal 2): 122 ± 0.7 J/K/mol
molar heat capacity at constant pressure ([3]; 130 K, Crystal 2): 130.2 ± 0.7 J/K/mol
molar heat capacity at constant pressure ([3]; 140 K, Crystal 2): 139.3 ± 0.8 J/K/mol
molar heat capacity at constant pressure ([3]; 150 K, Crystal 2): 149.6 ± 0.8 J/K/mol
molar heat capacity at constant pressure ([3]; 160 K, Crystal 2): 161.7 ± 0.8 J/K/mol
molar heat capacity at constant pressure ([3]; 170 K, Crystal 2): 173.8 ± 0.9 J/K/mol
molar heat capacity at constant pressure ([3]; 180 K, Crystal 2): 185.9 ± 0.9 J/K/mol
molar heat capacity at constant pressure ([3]; 186.7 K, Crystal 1): 191.3 ± 1 J/K/mol
molar heat capacity at constant pressure ([3]; 186.7 K, Crystal 2): 194 ± 1 J/K/mol
molar heat capacity at constant pressure ([3]; 190 K, Crystal 1): 193.3 ± 1 J/K/mol
molar heat capacity at constant pressure ([3]; 200 K, Crystal 1): 199.5 ± 1 J/K/mol
molar heat capacity at constant pressure ([3]; 210 K, Crystal 1): 205.6 ± 1 J/K/mol
molar heat capacity at constant pressure ([3]; 220 K, Crystal 1): 212.1 ± 1 J/K/mol
molar heat capacity at constant pressure ([3]; 230 K, Crystal 1): 220.2 ± 1.1 J/K/mol
molar heat capacity at constant pressure ([3]; 240 K, Crystal 1): 230.2 ± 1.1 J/K/mol
molar heat capacity at constant pressure ([3]; 250 K, Crystal 1): 244.6 ± 1.2 J/K/mol
molar heat capacity at constant pressure ([3]; 260 K, Crystal 1): 274.7 ± 1.3 J/K/mol
molar heat capacity at constant pressure ([3]; 270 K, Crystal 1): 324 ± 1.5 J/K/mol
molar heat capacity at constant pressure ([3]; 276.03 K, Crystal 1): 286.8 ± 1.4 J/K/mol
molar heat capacity at constant pressure ([3]; 276.03 K, Liquid): 305.9 ± 1.4 J/K/mol
molar heat capacity at constant pressure ([3]; 280 K, Liquid): 308.4 ± 1.4 J/K/mol
molar heat capacity at constant pressure ([3]; 290 K, Liquid): 314.9 ± 1.5 J/K/mol
molar heat capacity at constant pressure ([3]; 298.15 K, Liquid): 319.5 ± 1.5 J/K/mol
molar heat capacity at constant pressure ([3]; 300 K, Liquid): 320.5 ± 1.5 J/K/mol
molar heat capacity at constant pressure ([3]; 310 K, Liquid): 325.8 ± 1.5 J/K/mol
molar heat capacity at constant pressure ([3]; 320 K, Liquid): 331.8 ± 1.5 J/K/mol
molar heat capacity at constant pressure ([3]; 330 K, Liquid): 338.2 ± 1.6 J/K/mol
molar heat capacity at constant pressure ([3]; 340 K, Liquid): 344.4 ± 1.6 J/K/mol
molar heat capacity at constant pressure ([3]; 350 K, Liquid): 350.7 ± 1.6 J/K/mol
molar heat capacity at constant pressure ([3]; 360 K, Liquid): 356.6 ± 1.6 J/K/mol
molar heat capacity at constant pressure ([3]; 370 K, Liquid): 361.5 ± 1.6 J/K/mol
